Test results published in US11484529B2, “Desmethylanethole trithione derivatives for the treatment of diseases linked to mitochondrial reactive oxygen species (ROS) production” (OP2 Drugs, priority 2017, dated 2022).
“Also recorded” adds a separate entry of the source.

Key:
[1] = system: isolated mitochondria from rat heart; assay: Mitochondrial respiration / oxidative phosphorylation (oxygraph); format: biochemical
Method: Male Wistar rats (250-325 g; obtained from Janvier Labs, Le Genest-Saint-Isle, France) were killed by stunning and cervical dislocation, and the heart was quickly removed and washed in cold isolation medium containing 100 mM sucrose, 180 mM KCl, 50 mM Tris, 5 mM MgCl2, 10 mM EDTA, and 0.1% (w/v) defatted BSA (pH 7.2).
Isolation of heart mitochondria was performed in a cold chamber. Before homogenization, hearts (about 1.5 g) were minced with scissors and treated for 5 minutes in 5 mL of the same medium supplemented with protease (2 mg of bacterial proteinase type XXIV per mL of isolation buffer) with stirring. The tissue suspension was poured into a 50-mL glass Potter homogenizer, diluted with 20 mL of isolation buffer, then homogenized for 3 minutes using a motorized Teflon pestle. The homogenate was filtered through bolting cloth (Sefar Nitex) to remove debris, and centrifuged at 8,000 g for 10 minutes. The resulting pellet was rinsed with 5 mL of isolation buffer, resuspended in 25 mL of the same buffer, then subjected to low speed centrifugation (400 g) for 8 minutes. […] Protein concentration was determined by the Bradford method (Sigma, kit #B6916) using BSA as standard. […]
Oxygen consumption rates of heart mitochondria (0.1 mg/mL), incubated in the absence or presence of AOL at increasing doses (from 0 to 80 μM final concentration), were recorded polarographically under constant stirring at 25° C. using a high-resolution oximeter (Oxygraph-2K, Oroboros Instruments, Austria). […]
Isolation of heart mitochondria was performed in a cold chamber. […] Protein concentration was determined by the Bradford method (Sigma, kit # B6916) using BSA as standard. […]
Oxygen consumption rates of heart mitochondria (0.1 mg/mL), incubated in the absence or presence of AOX at increasing doses (from 0 to 100 μM final concentration), were recorded polarographically under constant stirring at 25° C. using a high-resolution oximeter (Oxygraph-2K, Oroboros Instruments, Austria). […]

[2] = system: chronic hypoxic rats and monocrotaline-treated rats; assay: Pulmonary hypertension rat models (chronic hypoxia, monocrotaline); format: in vivo
Method: Male Wistar rats (300-400 g) were separated into 3 groups and used 4 weeks later: • the first group (control or normoxic rats—N rats) was housed in ambient room air; • the second group (chronic hypoxic rats—CH rats) was exposed to chronic hypoxia for 3 weeks in a hypobaric chamber (50 kPa); and • the third group (MCT rats) was injected with a single intraperitoneal dose of monocrotaline at a dose of 60 mg/kg. MCT (Sigma, St Quentin Fallavier, France) was dissolved in an equal volume of HCl (1 M) and NaOH (1 M).
In each group, some animals were treated with AOL (Sulfarlem, EG Labo Eurogenerics. Crushed tablets mixed with food, fed ad libitum) and some other animals were untreated. Eaten food was weighed every day to estimate the AOL dose administered. 10 mg/kg/day was thus administered during the 3 weeks of experiment for the second and third groups.
Pulmonary hypertension was assessed by measuring both the mean pulmonary arterial pressure (mPAP) and right ventricle hypertrophy. To measure PAP, N, CH and MCT rats were anesthetized with pentobarbital sodium (Centravet) by intraperitoneal injection (60 mg/kg) and mPAP was measured, in closed-chest rats, through a catheter inserted in the right jugular vein, then through the right atria and the right ventricle into the pulmonary artery, and attached to a Baxter Uniflow gauge pressure transducer. Right ventricle hypertrophy was estimated by the ratio of right ventricle (RV) to left ventricle plus septum (LV+S) weight (Fulton index).
Pulmonary arteries (PA) remodeling was assessed by measuring the percentage of the PA medial thickness from sections of paraffin-embedded lung. Lung sections were first stained with hematoxylin and eosin (VWR) according to common histological procedure.

intrapulmonary arteries = assay: Isometric contraction of intrapulmonary arteries induced by serotonin or endothelin
Method: Intrapulmonary arteries of the first order (IPA1) were divided into short tubular segments with an external diameter of 1.5-2 mm and used for isometric contraction measurement. Arterial rings were mounted in isolated organ bath systems, containing Krebs solution (containing 118.4 mM NaCl, 4.7 mM KCl, 1.2 mM MgSO4, 25 mM NaHCO3, 1.2 mM KH2PO4, 2.5 mM CaCl2) and 11.1 mM D-glucose, pH 7.4 adjusted with NaOH) at 37° C. and bubbled continuously with […]. An initial load of 0.8 to 1 g was applied to arterial rings. Tissues were allowed to equilibrate for 1 hour in Kreb's solution and washed out every 15 minutes. A high KCl solution (80 mM) was applied in order to obtain a reference contraction used to normalize subsequent contractile responses.
Contractile responses to different agonists were then tested by constructing a cumulative concentration-response curve (CCRC) to serotonin (5HT, 10^−4 to 10^−[…]) or endothelin (ET-1, 10^−7 to 10^−10 M). When indicated, AOL or AOX were preincubated during 30 minutes, and then CCRC to agonist was performed in the presence of the drug. High potassium solutions were obtained by substituting an equimolar amount of KCl for NaCl from Kreb's solution. Endothelial function was tested on each ring by examining the relaxation induced by 10 μM carbamylcholine on 0.3 μM Phe-induced preconstricted pulmonary arterial rings. Passive and active mechanical properties were assessed using transducer systems, coupled to IOX software (EMKA Technologies, Paris, France) in order to facilitate data acquisition and analysis.

| SMILES | effect on mitochondrial respiration / oxidative phosphorylation ([1]; AOL 5 to 80 μM, glutamate+malate, succinate(+rotenone) or all substrates, substrate, ADP and ATR states) | Fulton index (right ventricular hypertrophy) ([2]; 10 mg/kg/day in food) | reduction of pulmonary arteries diameter (PA remodeling) ([2]; CH rats, 10 mg/kg/day) | mean pulmonary arterial pressure ([2]; MCT rats, 10 mg/kg/day in food, 3 weeks) | mean pulmonary arterial pressure ([2]; normoxic (N) rats) | endothelin-induced contractions (intrapulmonary arteries; AOL preincubated 30 minutes) | serotonin-induced contractions (intrapulmonary arteries; AOL preincubated 30 minutes) | oxidation rate under substrate state and ATR state ([1]; AOX 20 to 100 μM, succinate (+ rotenone)) | concentrations with uncoupling effect on oxidative phosphorylation ([1]; succinate (+ rotenone)) | response of serotonin- and endothelin-induced contractions compared with AOL (intrapulmonary arteries; AOX at 10 μM) | serotonin-induced contractions (intrapulmonary arteries; higher concentrations of AOX (above 10 μM)) |
| --- | --- | --- | --- | --- | --- | --- | --- | --- | --- | --- | --- |
| COc1ccc(-c2cc(=S)ss2)cc1 [AOL, 5-(4-methoxyphenyl)-3H-1,2-dithiole-3-thione] | no statistical differences in mitochondrial respiration; also recorded: statistically no differences were observed | no effect on the Fulton index | 30% | decreased in MCT rats | no significant effect on the control group | no effect on endothelin-induced contractions | could relax contractions induced with up to 5·10^−5 M of serotonin |  |  |  |  |
| Oc1ccc(-c2cc(=S)ss2)cc1 [AOX, 5-(4-hydroxyphenyl)-3H-1,2-dithiole-3-thione] |  |  |  |  |  |  |  | increase for concentrations up to 50 μM followed by a decrease for concentrations over 50 μM | higher than 20 μM | same pattern of response | contractions induced with 10^−4 M of serotonin could be relaxed |
